Data: patent publication US20120034210A1, “COMPOSITIONS FOR POTENTIATING APOPOSIS SIGNALS IN TUMOUR CELLS” (INSTITUT BERGONIE, priority 2008, published 2012)
“Also recorded” adds a separate entry of the source.

How the values were obtained:
[1] = system: DISC macro-complex (Fas/FADD/Caspase-8); experiment: DISC formation: Fas immunoprecipitation and Western blot; type: cell-based, human; settings: H9, Jurkat, activated PBTs; non-cytotoxic concentrations; vs untreated cells
Protocol: Cells were incubated with 1 μg/ml APO1-3 for 30 minutes at 4° C. After washing, cells were incubated for 15 minutes at 4° C. (0 minutes) or at 37° C. (15 minutes) and then lysed for 30 minutes at 4° C. in a lysis buffer (25 mM HEPES pH 7.4, 1% Triton X-100, 150 mM NaCl, 2 mM EDTA, a cocktail including protease inhibitors (Sigma)). The lysed cells were then centrifugated for 15 minutes at 15000 rpm in order to eliminate genomic DNA, and the supernatant was kept. The sepharose beads which were coupled with protein A were added to the lysate and the mixture was incubated for 2 hours. The beads were recovered, washed intensively and the immunoprecipitated proteins were re-suspended in a denaturing and reducing buffer (0.01M Tris-HCl pH6.8, 10% glycerol (v/v), 85 mM sodium dodecyl sulfate (SDS), 5% (v/v) […] and 0.005% (w/v) bromophenol blue) then heated at 100° C. for 5 minutes. The samples were deposited in an acrylamide/Bisacrylamide gel and separated by electrophoresis. The proteins were transferred from the gel into a nitrocellulose membrane using a semi-dry medium transfer technique for 2 hours at constant amperage (0.8 mA/cm^2). […] After transfer, the nitrocellulose membrane was saturated with proteins for 30 minutes with a TBST buffer (50 mM Tris pH=8, 0.15M sodium chloride, 0.05% (v/v) Tween-20) containing 5% (w/v) skimmed powdered milk (TBSTM). After washing with TBST, the membrane was incubated for 2 hours with the primary antibody in TBST. The membrane was washed intensively then incubated for one hour with TBST containing the secondary peroxidase-coupled antibody. […] This solution contained a substrate metabolised by peroxidase to yield a luminescent compound, which allowed marking a radiographic film (Amersham).

[2] = system: T and B leukemia/lymphoma cell lines and activated PBLs treated with FasL; experiment: Fas/CD95-mediated cell death (MTT test); type: cell-based, human
Protocol: 2 to 4.10^4 cells were deposited in wells in a 96-well plate. The cells were incubated, in the presence of the different reactants for the times specified, at 37° C. in a final volume of 100 or 200 μl.
The MTT test enabled to measure the activity of a mitochondrial enzyme, the dehydrogenase succinate which transforms MTT (or 3-(4,5-dimethylthiazol-2-yl)-2,5-diphenyltetrazolium) bromide originally yellow in colour and soluble, into blue formazan crystals, insoluble in aqueous phase. Upon completion of the different treatments, the living cells were quantified by adding in each well 15 μl PBS (Phosphate Buffered Saline) containing 5 mg/ml MTT. […] Spectrophotometric reading of absorbance was done at 570 nm. The measurement of the optical density is directly proportional to the number of living cells and the percentage of cell death was calculated with the following formula: 100-[(DO treated cells/DO non-treated cells)*100].

caspase-8 = experiment: Caspase-8 activation/cleavage; type: cell-based, human
CD95 [3] = experiment: CD95 expression; type: cell-based, human; settings: 2-APB or BAPTA-AM regimens
Protocol: This technique allowed detecting the presence of a protein on the cell surface. All the steps took place at 4° C. so as to reduce membrane proteins endocytosis and loss of cell labelling.
Plasma membrane of the cells (10^6 cells per marking) was saturated for 5 minutes in 1 ml PBS containing 1% (w/v) BSA (bovine serum albumin) and 1% (v/v) foetal veal serum (FVS). This solution was used for washings and antibody dilutions.
The cells were incubated for 30 minutes with 50 μl primary antibody (anti-Fas DX2 clone at 10 μg/ml), washed twice with the PBS/BSA/FCS solution, then incubated with 50 μl of a secondary antibody coupled with phycoerythrin for 30 minutes. After 3 washings, the cells were re-suspended in 200 μl PBS/BSA/SVF and analysed immediately by flow cytometry (FACsCalibur, BD Biosciences). The fluorescence intensity was analysed with the Cellquest software.

CD95 [4] = experiment: CD95 capping (CD95-CAP), fluorescence confocal microscopy; type: cell-based, human; settings: leukemic cell lines; culture up to 24 hours
Protocol: The cells were left to adhere on a slide pre-treated with poly-L-lysin (ESCO, VWR) for 5 minutes then incubated with the different reactants. The cells activated with the anti-Fas APO1-3 agonist antibody were washed and marked directly with the anti-mouse secondary antibody coupled with Alexa555 fluorochrome. The cells incubated with Rituximab (anti-CD20) were washed in a cold PBS buffer then fixed with a PBS/4% PFA (paraformaldehyde) solution for 15 min. […] The cells were washed in PBS medium then the slide was dried and the cells were placed in a mounting medium, Fluoroprep (Biomerieux) and analysed by fluorescence confocal microscopy (LSM SP5, Leica, Germany) with an x63 zoom. The DAPI (200 ng/ml) allowed colouring the nuclei.

[5] = system: intracellular calcium concentration; experiment: Intracellular Ca2+ concentration, indo-1 (micro)spectrofluorimetry; type: cell-based, human
Protocol: Principle: [Ca^2+]i was measured by microspectrofluorimetry using a calcium sensitive fluorescent probe: indo-1. When excited at 360 nm wavelength, the so-called monoexcitation/double emission indo-1 probe transmitted back in a spectrum ranging from 400 to 500 nm. Binding of Ca^2+ to indo-1 caused displacement of the emission spectrum after excitation. The emission maximum in the unbound form was located around 480 nm. The emission of the complexed form was around 405 nm. An increase of calcium concentration thus caused the emission to increase to 405 nm and the emission to decrease to 480 nm. The ratio of both fluorescence intensities allowed to be independent from the quantity of the probe and to determine the [Ca^2+]i according to the Grynkiewicz equation:
[Ca^2+]i(nM)=Kd.β×(R−Rmin)/(Rmax−R)
Rmax, Rmin and Kd. β were determined by combining electrophysiology (patch clamp) and spectrofluorimetry. Rmax was determined by placing in the patch pipette a medium containing 10 mM CaCl2. Rmin was obtained by placing as an intrapipette solution a calcium-deprived medium (10 mM EGTA).
The cells were then rinsed with HBSS (800 rpm centrifugation for 2 minutes) and placed in an observation chamber on a glass coverslip. […] The excitation light is supplied by a Xenon lamp (100W). […] The substances to be tested were applied using a glass pipette positioned at some twenty μm of the studied cell and connected to a pneumatic system.
The principle as well as the loading of the cells were identical with the measurement on single cells. In such a case, approx. 40,000 cells were placed in a quartz tub under constant agitation. The tub was then placed in a Hitachi spectrofluorimeter whereof the excitation monochromator was set to 350 nm. […] The signals were transmitted to a computer via an analogue/digital converter. So as to be able to apply the Grynkiewicz equation (see above) and translate the fluorescence ratios measured in calcium values, the calibration parameters were entered into the software. The substances to be tested were applied directly in the tube under constant agitation.

[6] = system: Raji, BL2, Jurkat cell lines and activated PBL; experiment: Apoptosis % by loss of mitochondrial membrane potential; type: cell-based, human; settings: Zoledronate 10 μM in vitro; BL2, Raji and Jurkat, respectively
Protocol: 2 to 4.10^4 cells were deposited in wells in a 96-well plate. The cells were incubated, in the presence of the different reactants for the times specified, at 37° C. in a final volume of 100 or 200 μl. The apoptotic cells were identified in the cellular populations by measuring mitochondrial de-polarisation. […] These potentiometric probes allowed monitoring the variations of the mitochondrial membrane potential. […] Following cell treatment with the different drugs, the former were placed in the presence of TMRM or DIOC6 at 10 nM concentration, for 20 minutes at 37° C. then the fluorescence of the cells was analysed by flow cytometry.

Raji cells = experiment: Raji B lymphoma tumour growth in Rag2-/-γ-/- mice; type: in vivo; settings: Raji s.c.; single agent; Rituximab 2 mg/kg, Zoledronate 4 mg/kg
Protocol: The implantation of the tumours was done subcutaneously in Rag2−/−γ−/− mice flank aged from 5 to 7 weeks. Following implantation of the tumours, the mice were divided in groups of 8 to 10 animals for each treatment. The size of the tumour was assessed every day by measuring its width (w) and its length (I). Its volume was calculated according to the formula: V=lw^2/2. At the end of the experiment, the animals were sacrified, the tumour weight was measured.
From 10^6 Raji cells were implanted subcutaneously in mice flank. The effects of Rituximab alone, of Zoledronate alone, are assessed on the growth of tumours. Rituximab (2 mg/kg) was delivered 3 times a week, Zoledronate was delivered 1 time a week.

[7] = Mice calcemia after Zoledronate injection; type: in vivo; settings: 4 mg/kg, one injection per week, 4 weeks, blood 3 days after last injection
Protocol: Blood samples were taken from mice 3 days after the last Zoledronate or vehicle injection and calcemia was assessed by COBAS INTEGRA Calcium® (Roche) micro-method.

## NCCOB(c1ccccc1)c1ccccc1 [2-APB, 2-Aminoethoxydiphenyl borate]
[1]
  DISC formation / FADD recruitment upon CD95 stimulation: dramatically improved the DISC formation; also recorded: induction of DISC formation
[2]; Jurkat-CD95Q257K, pre-incubation with non-cytotoxic doses
  CD95-mediated apoptotic signal in CD95-resistant cells: restored the CD95-mediated apoptotic signal at a level comparable to the parental cell line
[2]; high doses of 2-APB (44 μM), T or B lymphoma/leukemic cell lines
  potentiation of FasL response: potentiated FasL response; also recorded: sensitizes drastically the Fas apoptotic signal
[2]; leukemic cell lines, long-term culture up to 24 hours, no CD95L
  apoptotic signal by the agent alone: did not trigger the apoptotic signal
caspase-8; T and B-cell lines
  kinetic of caspase-8 cleavage upon CD95L: accelerated the cleavage of the initiator caspase-8
caspase-8; during 60 minutes treatment, no CD95L
  caspase-8 activation or mitochondrial depolarization by the agent alone: no trace of caspase-8 activation or mitochondrial depolarization was detected
CD95 [3]
  expression of CD95: did not modify the expression of CD95
CD95 [4]
  CD95-CAP formation: drives CD95-CAP
[5]; 2-APB 44 μM
  increase in intracellular calcium induced by Thapsigargin and by extracellular calcium 0 to 5 mM: reduced the increase in the intracellular calcium concentration
[5]; high doses of 2-APB, T or B lymphoma cell lines
  concentration of intracellular calcium: induced decreasing concentration of intracellular calcium
[5]; non-cytotoxic concentrations, CD95 stimulation
  CD95-mediated peak of calcium: totally abrogated the CD95-mediated peak of calcium
[5]; pre-incubation of cells
  basal [Ca2+]i: induced a faint decrease in the basal [Ca^2+]i

## O=P(O)(O)C(O)(Cn1ccnc1)P(=O)(O)O [Zoledronate, zoledronate]
[6]
  potentiation of apoptotic response to TRAIL, RTX and FasL: does not potentiate the apoptotic response
Raji cells
  tumour mass vs vehicle: not significantly affected
[7]
  calcemia vs vehicle: significant (p<0.05) decrease in their calcemia
[5]; Zoledronate in vitro, all model cell lines tested
  intracellular calcium concentration: did not affect intracellular calcium concentration
